Data on one compound can be found in article PMC6934184, “Selective DNA-PKcs inhibition extends the therapeutic index of localized radiotherapy and chemotherapy” (The Journal of Clinical Investigation, 2019).

Each structure is given as a SMILES string.

This assay concerns the target T1, STK38L (NDR2) (Homo sapiens, UniProt Q9Y2H1).
T1 construct: purchased Thermo Fisher Scientific (Life Technologies) SelectScreen
Put plainly: SelectScreen LanthaScreen. The class given is binding. To be noted: read-out: % displacement. An outline of the steps:
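NU5455 was profiled across the SelectScreen Broad panel of kinase activity and binding assays. Z'LYTE reactions such as CSF1R ran at apparent Km ATP, while the Adapta CAMK1 assay used ATP listed as 10. Values are given as percent.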

T1 sequence (Q9Y2H1 whole entry): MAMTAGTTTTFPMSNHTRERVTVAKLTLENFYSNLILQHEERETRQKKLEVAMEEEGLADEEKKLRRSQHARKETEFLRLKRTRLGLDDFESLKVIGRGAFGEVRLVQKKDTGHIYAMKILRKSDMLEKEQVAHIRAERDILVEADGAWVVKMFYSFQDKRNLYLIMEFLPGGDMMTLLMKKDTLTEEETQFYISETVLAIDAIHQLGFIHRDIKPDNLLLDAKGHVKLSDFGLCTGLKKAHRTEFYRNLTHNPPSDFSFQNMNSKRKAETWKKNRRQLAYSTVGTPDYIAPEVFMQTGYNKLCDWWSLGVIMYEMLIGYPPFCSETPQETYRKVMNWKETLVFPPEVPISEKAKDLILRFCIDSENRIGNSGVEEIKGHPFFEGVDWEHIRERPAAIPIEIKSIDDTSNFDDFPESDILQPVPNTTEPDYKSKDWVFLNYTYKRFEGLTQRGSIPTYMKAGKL

For the compound `CN(C(=O)CN1CCOCC1)c1ccc2sc3c(-c4cccc5c(=O)cc(N6CC7CCC(C6)O7)oc45)cccc3c2c1` [NU5455], the inhibition at 1 µM is -8.4%.
